# Experimental data from US6953810B2, “Nicotinamide biaryl derivatives useful as inhibitors of PDE4 isozymes” (Pfizer Inc, priority 2001, dated 2005).
# Entries after “also recorded” stand apart in the source; their conditions may differ.
# What was measured:
# [1] = in vivo; cited from earlier work
# [2] = system: late reactions to inhaled allergen; settings: oral 15 and 30 mg, 9.5 days; cited from earlier work
# [3] = system: catalytic site (Sc) of PDE4; settings: cited from earlier work
# [4] = system: antigen-induced lung eosinophilia; settings: rat; cited from earlier work
# rhinorrhea = settings: in vivo; cited from earlier work
# [5] = system: ex vivo TNF release and lymphocyte proliferation; settings: oral dose of 300 mg; cited from earlier work
# tumor cells = settings: at micromolar concentrations; cited from earlier work
# guinea-pig trachea = settings: cited from earlier work
# [6] = system: antigen-induced bronchoconstriction; settings: guinea-pig; cited from earlier work
# [7] = system: airway hyper-responsiveness (AHR); settings: guinea-pig; PAF-, ozone- or ACh-induced; cited from earlier work
# [8] = system: lung, BAL, airway and pleural eosinophilia; settings: guinea-pig; cited from earlier work
# [9] = system: rheumatoid arthritis patients; parameters: dose or concentration left out as unconfirmed; settings: 35 patients; cited from earlier work
# SCW-induced arthritis = settings: in vivo; cited from earlier work
# [10] = system: psoriatic epidermal slices; settings: psoriatic and keratomed psoriatic epidermal slices; cited from earlier work
# psoriatic lesions = settings: two double-blind studies; cited from earlier work
# patients = settings: oral 5, 10, and 15 mg b.i.d., week 2; cited from earlier work
# [11] = system: human peripheral blood mononuclear cells (HPBM); settings: normal patients and subjects with atopic dermatitis; cited from earlier work
# [12] = system: lipopolysaccharide-induced mesenteric blood flow fall; settings: dog, in vivo; cited from earlier work
# bone marrow culture = settings: cited from earlier work
# [13] = system: isolated pulmonary artery rings; settings: cited from earlier work
# [14] = system: chronic relapsing experimental allergic encephalomyelitis; settings: SJL mice; cited from earlier work
# [15] = system: experimental allergic encephalomyelitis; settings: marmoset; cited from earlier work
# [16] = system: collagen II induced arthritis; settings: 3 mg/kg twice daily when arthritis was apparent; cited from earlier work
smiles,measurement,setting,value
"Nc1nc2c([nH]1)c(=O)n(CC1CC1)c(=O)n2CC1CC1 [BRL-61,063, cipamfylline]","emesis, nausea, vomiting",[1],adverse events of nausea and vomiting
COc1ccc([C@H](Cc2ccncc2)c2ccccc2)cc1OC1CCCC1 [CDP840],late reactions / late-phase response to inhaled allergen,[2],suppression; also recorded: significant inhibition
same,"emesis, nausea, vomiting",[1],without any adverse events of nausea or headache
same,"potency at the Sc compared with SB-207,499",[3],significantly higher potency
Cc1cc2c3c(c1)C(c1ccccc1)=N[C@@H](NC(=O)c1ccncc1)C(=O)N3CC2 [CI-1018],oral potency ED50,[4],5 mg/kg
"COc1ccc(C2CNC(=O)NC2)cc1O[C@H]1C[C@@H]2CC[C@H]1C2 [CP-80,633, atizoram]","emesis, nausea, vomiting",[1],elicit emesis
"O=C(O)c1cccc(-c2ccc(CNC(=O)c3cccnc3Oc3ccc(F)cc3)cc2)c1 [Example 1, 4′-[[[2-[4-Fluorophenoxyl]-pyridine-3-carbonyl]-amino]-methyl]-biphenyl-3-carboxylic acid]",melting point,,184 to 186 °C
O=C(O)c1cccc(-c2ccc(CNC(=O)c3cccnc3Oc3ccc4c(c3)OCO4)c(F)c2)c1 [Example 3],melting point,,190 to 192 °C
"N#Cc1cccc(Oc2ncccc2C(=O)NCc2ccc(-c3cccc(C(=O)O)c3)cc2F)c1 [Example 4, 4′-[[[2-[3-Cyano-phenoxy]-pyridine-3-carbonyl]-amino]-methyl]-biphenyl-3′-fluoro-biphenyl-3-carboxylic acid]",melting point,,200 to 202 °C
CCCC1C(=O)C2=C(C(CC)=NC2C)c2nc(OC)ccc21 [Example D-22888],rhinorrhea in the antigen-challenged pig,rhinorrhea,inhibit rhinorrhea
CCNc1ncn(Cc2ccc(OC)c(OC3CCCC3)c2)c2nc(C(C)C)nc1-2 [Example V-11294A],reduction of TNF levels and lymphocyte proliferation,[5],effective
Clc1nc2c(N3CCCC3)nc(N3CCNCC3)nc2nc1NCc1ccccc1 [Formula (0.0.55)],inhibition of growth of tumor cells,tumor cells,inhibit the growth of tumor cells
O=S1(=O)CCN(c2nc(NC3CC3)nc(C3CC3)n2)C1 [Formula (0.0.56)],relaxation in a guinea-pig trachea model,guinea-pig trachea,potent relaxant agents
CC1CC1c1nc(NC2CC2)nc(N2CCOCC2)n1 (stereo not drawn) [Formula (0.0.57)],relaxation in a guinea-pig trachea model,guinea-pig trachea,potent relaxant agents
O=c1c2[nH]cnc2c2cccnc2n1-c1ccccc1 [KF17625],inhibition of antigen-induced bronchoconstriction,[6],activity
same,inhibition of airway hyper-responsiveness (AHR),[7],activity
same,"inhibition of antigen-induced lung, BAL or airway eosinophilia",[8],activity
O=c1c2c(ncn2Cc2cccnc2)c2cccnc2n1-c1ccccc1 [KF19514],inhibition of antigen-induced bronchoconstriction,[6],activity
same,inhibition of airway hyper-responsiveness (AHR),[7],activity
same,"inhibition of antigen-induced lung, BAL or airway eosinophilia",[8],activity
COc1ccc(C(=O)Nc2c(Cl)cncc2Cl)cc1OC1CCCC1 [RP73401],clinical improvement with reduction in C-reactive protein and IL-6 serum levels,[9],positive trend towards clinical improvement
same,"disease in SCW-induced arthritis (joint destruction, synovitis, fibrosis)",SCW-induced arthritis,significant amelioration of disease
"COc1ccc(C(=O)Nc2c(Cl)cncc2Cl)cc1OC1CCCC1 [RP-73,401, piclamilast]",inhibition of airway hyper-responsiveness (AHR),[7],active
same,inhibition of IL-5 induced pleural eosinophila,[8],active
same,"inhibition of antigen-induced lung, BAL or airway eosinophilia",[8],active
same,"emesis, nausea, vomiting",[1],elicit emesis
"O=c1c2cccnc2n(-c2cccc([N+](=O)[O-])c2)c(=O)n1Cc1ccncc1 [RS-23,544]","emesis, nausea, vomiting",[1],elicit emesis
COc1ccc(CC2CNC(=O)N2)cc1OC1CCCC1 (stereo not drawn) [Ro 20-1724],elevation of cAMP concentrations over controls,[10],very marked elevation
same,psoriatic lesions versus vehicle,psoriatic lesions,improve psoriatic lesions
"COc1ccc([C@]2(C#N)CC[C@@H](C(=O)O)CC2)cc1OC1CCCC1 [SB-207,499]",trough FEV1 versus placebo,patients,significant increases
CCCCn1c(=O)c2c(ncn2CC(C)=O)n(CCCC)c1=O [denbufylline],inhibition of proliferation of HPBM,[11],concentration-related inhibition
same,potency relative to pentoxifylline in inhibiting lipopolysaccharide-induced mesenteric blood flow fall,[12],100 fold
same,mineralized nodules in bone marrow culture,bone marrow culture,increase in the number of mineralized nodules
Cc1[nH]c(=O)c(C#N)cc1-c1ccncc1 [milrinone],effect on relaxant activities of isoproterenol and forskolin,[13],same effect
COc1ccc(C2CNC(=O)C2)cc1OC1CCCC1 (stereo not drawn) [rolipram],inhibition of proliferation of HPBM,[11],concentration-related inhibition
same,clinical signs and pathological changes of chronic relapsing EAE,[14],ameliorates clinical signs and pathological changes
same,clinical signs of EAE,[15],suppress the appearance of clinical signs
same,effect on relaxant activities of isoproterenol and forskolin,[13],potentiates the relaxant activities of isoproterenol and forskolin
same,development of disease,[16],progression of severity was halted
